ChEMBL document CHEMBL1201862, “PubChem BioAssay data set” (2004)
Activity calls are given as the source filed them.

Assays:
[1] = Late stage counterscreen for inhibitors of Trypanosoma brucei methionyl tRNA synthetase (MetRS): Luminescence-based cell-based high throughput dose response assay to identify compounds that are cytotoxic to Jurkat human T lymphocyte cells.; format: functional
[2] = target: Luciferin 4-monooxygenase (Photinus pyralis, UniProt P08659); experiment: inhibition of purified Photinus pyralis luciferase – biochemical, luminescence, dose response (AID 1891)
[3] = Luminescence Cell-Based Dose Confirmation HTS to Identify Inhibitors of Platelet Dense Granule Release. [Related pubchem assays: 1663 (Primary HTS), 1678 (Summary of Project)]; format: functional
[4] = target: COUP transcription factor 2 (Homo sapiens, UniProt P24468); experiment: Luminescence-based cell-based high throughput dose response assay to identify inhibitors of COUP-TFII (NR2F2).; format: functional;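 note: HEK293 cells transiently cotransfected with COUP-TFII expression vector and reporter; luciferase reporter luminescence driven by COUP-TFII from the pX2-168 reporter plasmid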
[5] = target: T1, Heat shock factor protein 1 (Mus musculus, UniProt P38532); experiment: decrease of HSF1-responsive luciferase luminescence – cell-based, NIH3T3, dose retest, confirmation (AID 2382); format: functional;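 note: NIH3T3 fibroblasts with HSF1-driven luciferase reporter stressed by proteasome inhibitor MG132; luminescence from HSF1-driven luciferase expression after 8 hours of MG132 stress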
T1 sequence (P38532 whole entry): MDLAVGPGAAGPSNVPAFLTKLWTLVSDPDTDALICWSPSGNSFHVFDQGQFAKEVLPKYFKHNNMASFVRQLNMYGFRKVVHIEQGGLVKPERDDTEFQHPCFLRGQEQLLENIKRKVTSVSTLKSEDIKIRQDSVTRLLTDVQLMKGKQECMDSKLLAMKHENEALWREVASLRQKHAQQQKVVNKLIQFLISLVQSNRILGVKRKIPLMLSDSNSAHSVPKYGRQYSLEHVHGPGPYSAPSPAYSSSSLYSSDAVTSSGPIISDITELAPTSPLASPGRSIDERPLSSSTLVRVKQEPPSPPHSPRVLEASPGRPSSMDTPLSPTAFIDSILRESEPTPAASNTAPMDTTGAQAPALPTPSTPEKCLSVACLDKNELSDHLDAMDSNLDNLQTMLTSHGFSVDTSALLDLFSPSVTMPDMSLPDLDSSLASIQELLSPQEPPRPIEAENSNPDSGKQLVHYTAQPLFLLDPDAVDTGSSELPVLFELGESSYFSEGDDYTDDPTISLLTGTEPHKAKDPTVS

[6] = Luminescence-based counterscreen assay for KLF5 inhibitors: dose response cell-based high throughput screening assay to identify cytotoxic compounds using the IEC-6 intestinal epithelial cell line. [Related pubchem assays: 1700 (Primary screen.), 1834 (Confirmation screen.), 1858 (Summary AID.), 1905 (Counterscreen.)]; format: functional
[7] = loss of viability in HepG2 cells – cell-based, CellTiter-Glo, cherry-picked, cytotoxicity control for Shn3 inhibitor project, dose response (AID 624134); format: functional
[8] = non-specific 3'UTR reporter inhibition in Clone20-Shn3RL – cell-based, Renilla luciferase, cherry-picked, counter-screen for Shn3 inhibitor project, dose response (AID 624133); format: functional
[9] = reduction of Shn3 3'UTR-driven luciferase in osteoblasts – cell-based, Clone20 osteoblasts, firefly luciferase, cherry-picked, dose response (AID 624132); format: functional;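 note: firefly luciferase luminescence from reporter carrying the Shn3 3'UTR in osteoblasts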

COUP transcription factor 2, sequence (P24468 whole entry): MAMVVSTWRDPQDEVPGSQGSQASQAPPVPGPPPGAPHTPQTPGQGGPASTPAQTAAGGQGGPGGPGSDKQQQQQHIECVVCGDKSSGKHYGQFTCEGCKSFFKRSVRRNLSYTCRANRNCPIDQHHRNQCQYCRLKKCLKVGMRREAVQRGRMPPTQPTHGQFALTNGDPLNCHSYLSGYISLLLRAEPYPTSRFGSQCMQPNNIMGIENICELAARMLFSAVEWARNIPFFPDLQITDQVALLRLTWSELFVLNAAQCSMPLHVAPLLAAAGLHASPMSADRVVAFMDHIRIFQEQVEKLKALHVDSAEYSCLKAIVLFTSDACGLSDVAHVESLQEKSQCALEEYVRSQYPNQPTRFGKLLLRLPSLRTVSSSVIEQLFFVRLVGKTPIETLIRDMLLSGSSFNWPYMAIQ
Luciferin 4-monooxygenase, sequence (P08659 whole entry): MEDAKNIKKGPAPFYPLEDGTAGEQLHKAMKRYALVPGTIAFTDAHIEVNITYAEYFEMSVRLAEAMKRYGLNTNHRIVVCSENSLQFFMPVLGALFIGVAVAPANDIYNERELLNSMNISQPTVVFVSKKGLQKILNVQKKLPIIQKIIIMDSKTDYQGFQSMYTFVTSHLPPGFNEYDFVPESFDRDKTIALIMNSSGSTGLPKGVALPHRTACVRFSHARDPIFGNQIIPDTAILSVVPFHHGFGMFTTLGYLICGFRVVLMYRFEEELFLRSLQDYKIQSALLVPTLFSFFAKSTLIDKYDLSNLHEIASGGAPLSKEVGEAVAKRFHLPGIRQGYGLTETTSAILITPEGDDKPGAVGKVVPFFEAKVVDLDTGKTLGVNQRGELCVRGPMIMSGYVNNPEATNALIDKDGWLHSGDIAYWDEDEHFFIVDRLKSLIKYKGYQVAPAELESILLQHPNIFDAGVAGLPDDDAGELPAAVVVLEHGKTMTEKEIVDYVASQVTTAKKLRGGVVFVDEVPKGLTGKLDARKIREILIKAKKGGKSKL

SMILES	IC50 [1]	EC50 [2]	EC50 [3]	IC50 [4]	EC50 [5]	IC50 [6]	AC50 [7]	AC50 [8]	AC50 [9]
O=C(CC=NOCc1ccc([N+](=O)[O-])cc1)Nc1ccc(Cl)cc1	> 83.3 µM (inactive)								
COc1ccc(C(=O)Nc2ccccc2C(=O)N/N=C/c2ccc(O)c(OC)c2)cc1		0.149 µM (active)	0.156 µM (active)	> 9.49 µM (active)	< 0.16 µM (active)	> 39.8 µM (not active)			
OC[C@@H]1CN(Cc2ccc(-c3ccccc3)cc2)C[C@H](n2cnc3c(NCc4ccc(F)cc4)ncnc32)O1				8.22 µM (active)			64.5 µM (active)	4.44 µM (active)	1.58 µM (active)
